Counter-ions that a name gives are not always drawn. Calls of active or inactive are those of the source. No cut-off for these calls is given here.
How the values were obtained:
[1] = system: THP-1; experiment: Cytotoxicity against human THP1 cells after 48 hrs by SRB assay; format: functional, cell-based; conditions: THP-1, 48 h
[2] = system: A549; experiment: Induction of apoptosis in human A549 cells assessed as increase in hypodiploid sub-G1 DNA fraction at 1 uM after 24 hrs by propidium iodide-based flow cytometric analysis (reference value: 3 %); format: functional
[3] = Cytotoxicity against human PC3 cells after 48 hrs by SRB assay; format: functional, cell-based; conditions: PC-3, 48 h
[4] = system: A549; experiment: Induction of apoptosis in human A549 cells assessed as increase in intracellular ROS at 1 uM after 24 hrs using DCFH-DA by spectrofluorimetry relative to control; format: functional, cell-based
[5] = system: A549; experiment: Induction of apoptosis in human A549 cells assessed as caspase 9 activation at 1 uM after 12 hrs […] by colorimetry relative to control; format: functional, cell-based
[6] = system: A549; experiment: Induction of apoptosis in human A549 cells assessed as increase in hypodiploid sub-G1 DNA fraction at 10 uM after 24 hrs by propidium iodide-based flow cytometric analysis (reference value: 3 %); format: functional
[7] = system: MCF7; experiment: Cytotoxicity against human MCF7 cells after 48 hrs by SRB assay; format: functional, cell-based; conditions: MCF7, 48 h
[8] = system: A549; experiment: Induction of apoptosis in human A549 cells assessed as loss of membrane potential at 1 uM after 24 hrs using Rhodamine-123 by flow cytometric analysis (Rvb =12.1 %); format: functional
[9] = system: A549; experiment: Induction of apoptosis in human A549 cells assessed as caspase 3 activation at 1 uM after 12 hrs […] by colorimetry relative to control; format: functional, cell-based
[10] = system: A549; experiment: Cytotoxicity against human A549 cells after 48 hrs by SRB assay; format: functional, cell-based; conditions: A549, 48 h
[11] = system: CHO; experiment: Cytotoxicity against CHO cells assessed as change in LDH at 1 uM after 48 hrs by LDH colorimetric assay relative to control; format: cell-based, Cricetulus griseus; conditions: chinese hamster
[12] = system: CHO; experiment: Cytotoxicity against CHO cells assessed as change in LDH at 20 uM after 48 hrs by LDH colorimetric assay relative to control; format: cell-based, Cricetulus griseus; conditions: chinese hamster
[13] = system: A549; experiment: Induction of apoptosis in human A549 cells assessed as increase in hypodiploid sub-G1 DNA fraction at 2 uM after 24 hrs by propidium iodide-based flow cytometric analysis (reference value: 3 %); format: functional
[14] = system: A549; experiment: Induction of apoptosis in human A549 cells assessed as loss of membrane potential at 2 uM after 24 hrs using Rhodamine-123 by flow cytometric analysis (Rvb =12.1 %); format: functional
[15] = system: CHO; experiment: Cytotoxicity against CHO cells assessed as change in LDH at 10 to 100 uM after 48 hrs by LDH colorimetric assay relative to control; format: cell-based, Cricetulus griseus; conditions: chinese hamster

| Compound | IC50 [1] [µM] | Activity [2] [%] | IC50 [3] [µM] | Activity [4] | Activity [5] | Activity [6] [%] | IC50 [7] [µM] | Activity [8] [%] | Activity [9] | IC50 [10] [µM] | Activity [11] [%] | Activity [12] [%] | Activity [13] [%] | Activity [14] [%] | Activity [15] [%] |
| --- | --- | --- | --- | --- | --- | --- | --- | --- | --- | --- | --- | --- | --- | --- | --- |
| COc1ccc(/C=C/[C@@]23C=CC4(OO2)C(C)(C)CCC[C@]4(C)O3)c(OC)c1OC (mixture of isomers) | 25 | 60.4 | > 100 | Active | Active | 74.7 | 18 | 91.7 | Active | 7 | – | – | – | – | – |
| CC1(C)CCC[C@]2(C)O[C@]3(/C=C/c4ccccc4Cl)C=CC12OO3 (mixture of isomers) | 3.5 | 16.9 | 13 | Active | Active | 61 | 1 | 99.7 | Active | 0.9 | – | – | – | – | – |
| CC1(C)CCC[C@]2(C)O[C@]3(/C=C/c4ccc(Cl)c(Cl)c4)C=CC12OO3 (mixture of isomers) | 0.2 | 48.2 | 21 | Active | Active | 71.7 | 4.2 | 63 | Active | 4.1 | – | – | – | – | – |
| COc1ccccc1/C=C/[C@@]12C=CC3(OO1)C(C)(C)CCC[C@]3(C)O2 (mixture of isomers) | 13 | 68.2 | > 100 | Active | Active | 83 | 11 | 99.8 | Active | 6.5 | – | – | – | – | – |
| CC1(C)CCC[C@]2(C)O[C@]3(/C=C/c4ccccc4Br)C=CC12OO3 (mixture of isomers) | 0.1 | 44.9 | > 100 | Active | Active | 78.2 | 1.3 | 99.8 | Active | 2 | – | – | – | – | – |
| Cc1ccccc1/C=C/[C@@]12C=CC3(OO1)C(C)(C)CCC[C@]3(C)O2 (mixture of isomers) | 4 | 67 | 20 | Active | Active | 69.8 | 0.01 | 50.5 | Active | 4.3 | – | – | – | – | – |
| COc1ccc(/C=C/[C@@]23C=CC4(OO2)C(C)(C)CCC[C@]4(C)O3)cc1OC (mixture of isomers) | 11 | 67.9 | > 100 | Active | Active | 69.8 | 10 | 99.7 | Active | 12 | – | – | – | – | – |
| CC1(C)CCC[C@]2(C)O[C@]3(/C=C/c4cccc5ccccc45)C=CC12OO3 (mixture of isomers) | 7.4 | 66.8 | > 100 | Active | Active | 80.3 | 0.7 | 99.8 | Active | 0.02 | – | – | – | – | – |
| CC1(C)CCC[C@]2(C)O[C@]3(/C=C/c4ccccc4F)C=CC12OO3 (mixture of isomers) | 0.4 | 60.7 | > 100 | Active | Active | 74.8 | 0.1 | 99.8 | Active | 0.003 | – | – | – | – | – |
| CC1(C)CCC[C@]2(C)O[C@]3(/C=C/c4ccccc4[N+](=O)[O-])C=CC12OO3 (mixture of isomers) | 2.8 | 74.8 | > 100 | Active | Active | 76 | 7.7 | 99.7 | Active | 0.001 | 108 | 135 | – | – | – |
| CC[C@@]1(O)C(=O)OCc2c1cc1n(c2=O)Cc2cc3ccccc3nc2-1 [CAMPTOTHECIN] | – | – | – | – | – | – | – | – | – | – | – | – | 49 | 96.1 | 126 |
| COc1cccc2c1C(=O)c1c(O)c3c(c(O)c1C2=O)C[C@@](O)(C(=O)CO)C[C@@H]3O[C@H]1C[C@H](N)[C@H](O)[C@H](C)O1 [DOXORUBICIN HYDROCHLORIDE] | – | – | – | – | – | – | – | – | – | 0.1 | – | – | – | – | – |
| O=c1[nH]cc(F)c(=O)[nH]1 [FLUOROURACIL] | 0.04 | – | – | – | – | – | – | – | – | – | – | – | – | – | – |
| CO[C@@]12[C@H](COC(N)=O)C3=C(C(=O)C(C)=C(N)C3=O)N1C[C@@H]1N[C@@H]12 [MITOMYCIN] | 0.1 | – | – | – | – | – | 0.2 | – | – | 0.04 | – | – | – | – | – |
